Measurements published in patent US8846675B2, “N-linked heterocyclic receptor agonists for the treatment of diabetes and metabolic disorders” (Cymabay Therapeutics, Inc., priority 2007, dated 2014).

target: T1, IC-GPCR2 (Homo sapiens, UniProt Q8TDV5); assay: Stimulation of cAMP in CHO cell line stably expressing IC-GPCR2 (HTRF cAMP dynamic kit); assay type: cell-based; conditions: 3 μM compound; relative to maximal activity of 5-Ethyl-2-{4-[4-(4-tetrazol-1-yl-phenoxymethyl)-thiazol-2-yl]-piperidin-1-yl}-pyrimidine (=100%); IC-GPCR2 stably expressing CHO cells, 30 minutes
T1 construct: expressed in transfected cells
T1 sequence (Q8TDV5 1-335 S309L): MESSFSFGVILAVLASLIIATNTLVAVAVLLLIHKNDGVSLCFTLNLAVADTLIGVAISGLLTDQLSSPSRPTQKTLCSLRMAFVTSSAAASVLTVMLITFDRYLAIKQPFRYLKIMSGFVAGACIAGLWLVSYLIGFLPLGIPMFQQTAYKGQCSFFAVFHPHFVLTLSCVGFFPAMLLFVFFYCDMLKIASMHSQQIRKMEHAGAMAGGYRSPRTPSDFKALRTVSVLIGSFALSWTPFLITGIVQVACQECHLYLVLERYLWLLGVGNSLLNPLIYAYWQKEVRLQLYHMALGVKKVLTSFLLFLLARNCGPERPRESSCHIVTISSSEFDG
In short: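 CHO cells stably expressing IC-GPCR2, with parental CHO as counter-screen, were exposed to compound (0.00003–10 μM) for 30 min in Ham's F12. Intracellular cAMP read by HTRF competitive immunoassay (665/620 nm ratio). Activity at 3 μM expressed as % of maximal signal from a reference agonist.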

Compared with `FC(F)(F)c1ccc(N2CCC(n3ncc(COc4ccc(-n5cnnn5)nc4)n3)CC2)nc1` [Example 82, 2-(4-(4-((6-(1H-tetrazol-1-yl)pyridin-3-yloxy)methyl)-2H-1,2,3-triazol-2-yl)piperidin-1-yl)-5-(trifluoromethyl)pyridine], `CC1CN(c2ncc(C(F)(F)F)cn2)CCC1n1ncc(COc2ccc(-n3cnnn3)nc2)n1` (stereo not drawn) [Example 84, 2-(4-(4-((6-(1H-Tetrazol-1-yl)pyridin-3-yloxy)methyl)-2H-1,2,3-triazol-2-yl)-3-methylpiperidin-1-yl)-5-(trifluoromethyl)pyrimidine] is higher in “% activity at 3 μM” value: 64.90% for the first, 78.05% for the second.

Going from `CC1CN(C(=O)OC(C)(C)C)CCC1n1ncc(COc2ccc(-n3cnnn3)nc2)n1` (stereo not drawn) [Example 83, tert-Butyl 4-(4-((6-(1H-tetrazol-1-yl)pyridin-3-yloxy)methyl)-2H-1,2,3-triazol-2-yl)-3-methylpiperidine-1-carboxylate] to `Cc1cnc(N2CCC(n3ncc(COc4ccc(-n5cnnn5)nc4)n3)C(C)C2)nc1` (stereo not drawn) [Example 86, 2-(4-(4-((6-(1H-Tetrazol-1-yl)pyridin-3-yloxy)methyl)-2H-1,2,3-triazol-2-yl)-3-methylpiperidin-1-yl)-5-methylpyrimidine], the “% activity at 3 μM” value rises from 63.14% to 71.39%.

Going from `CCc1cnc(N2CCC(n3ncc(COc4ccc(-n5cnnn5)nc4)n3)C(C)C2)nc1` (stereo not drawn) [Example 85, 2-(4-(4-((6-(1H-Tetrazol-1-yl)pyridin-3-yloxy)methyl)-2H-1,2,3-triazol-2-yl)-3-methylpiperidin-1-yl)-5-ethylpyrimidine] to `CC1CN(c2ncc(Cl)cn2)CCC1n1ncc(COc2ccc(-n3cnnn3)nc2)n1` (stereo not drawn) [Example 87, 2-(4-(4-((6-(1H-Tetrazol-1-yl)pyridin-3-yloxy)methyl)-2H-1,2,3-triazol-2-yl)-3-methylpiperidin-1-yl)-5-chloropyrimidine], the “% activity at 3 μM” value falls from 76.12% to 75.63%.

First: Clc1cnc(N2CCC(n3ncc(COc4ccc(-n5cnnn5)cc4)n3)CC2)nc1 [Example 88, 2-(4-(4-((4-(1H-Tetrazol-1-yl)phenoxy)methyl)-2H-1,2,3-triazol-2-yl)piperidin-1-yl)-5-chloropyrimidine]
Second: Clc1cnc(N2CCC(n3ncc(COc4ccc(-n5ccnn5)cc4)n3)CC2)nc1 [Example 92, 2-(4-(4-((4-(1H-1,2,3-Triazol-1-yl)phenoxy)methyl)-2H-1,2,3-triazol-2-yl)piperidin-1-yl)-5-chloropyrimidine]
The “% activity at 3 μM” value of the first is higher: 60.96% for the first, 58.28% for the second.

Going from `Cc1cc(-n2cnnn2)ccc1OCc1cnn(C2CCN(c3ncc(Cl)cn3)CC2)n1` [Example 89, 5-chloro-2-(4-(4-((2-Methyl-4-(1H-tetrazol-1-yl)phenoxy)methyl)-2H-1,2,3-triazol-2-yl)piperidin-1-yl)pyrimidine] to `CCOC(=O)c1cnc(N2CCC(n3ncc(COc4ccc(-n5cnnn5)cc4F)n3)CC2)nc1` [Example 106, Ethyl 2-(4-(4-((2-fluoro-4-(1H-tetrazol-1-yl)phenoxy)methyl)-2H-1,2,3-triazol-2-yl)piperidin-1-yl)pyrimidine-5-carboxylate], the “% activity at 3 μM” value falls from 48.60% to 11.46%.

Going from `Cc1sc(OCc2cnn(C3CCN(c4ncc(Cl)cn4)CC3)n2)nc1-c1cccnc1` [Example 90, 2-((2-(1-(5-Chloropyrimidin-2-yl)piperidin-4-yl)-2H-1,2,3-triazol-4-yl)methoxy)-5-methyl-4-(pyridin-3-yl)thiazole] to `Cc1sc(OCc2cnn(C3CCN(c4ncc(Cl)cn4)CC3)n2)nc1-c1ccncc1` [Example 91, 2-((2-(1-(5-Chloropyrimidin-2-yl)piperidin-4-yl)-2H-1,2,3-triazol-4-yl)methoxy)-5-methyl-4-(pyridin-4-yl)thiazole], the “% activity at 3 μM” value falls from 13.60% to 5.82%.

First: Clc1cnc(N2CCC(n3ncc(COc4ccc(-n5cncn5)cc4)n3)CC2)nc1 [Example 93, 2-(4-(4-((4-(1H-1,2,4-Triazol-1-yl)phenoxy)methyl)-2H-1,2,3-triazol-2-yl)piperidin-1-yl)-5-chloropyrimidine]
Second: Clc1cnc(N2CCC(n3ncc(COc4ccc(-n5ccnc5)cc4)n3)CC2)nc1 [Example 94, 2-(4-(4-((4-(1H-Imidazol-1-yl)phenoxy)methyl)-2H-1,2,3-triazol-2-yl)piperidin-1-yl)-5-chloropyrimidine]
The “% activity at 3 μM” value of the first is higher: 50.84% for the first, 49.73% for the second.

Going from `CS(=O)(=O)c1ccc(OCc2cnn(C3CCN(c4ncc(Cl)cn4)CC3)n2)cc1` [Example 95, 5-Chloro-2-(4-(4-((4-(Methylsulfonyl)phenoxy)methyl)-2H-1,2,3-triazol-2-yl)piperidin-1-yl)pyrimidine] to `Clc1cnc(N2CCC(n3ncc(COc4ccc(Cl)nc4)n3)CC2)nc1` [Example 98, 5-Chloro-2-{4-[4-(6-chloro-pyridin-3-yloxymethyl)-[1,2,3]triazol-2-yl]-piperidin-1-yl}-pyrimidine], the “% activity at 3 μM” value falls from 51.03% to 17.16%.

Going from `Clc1cnc(N2CCC(n3ncc(COc4ccccc4-c4nnco4)n3)CC2)nc1` [Example 96, 5-Chloro-2-{4-[4-(2-[1,3,4]oxadiazol-2-yl-phenoxymethyl)-[1,2,3]triazol-2-yl]-piperidin-1-yl}-pyrimidine] to `FC(F)(F)c1cnc(N2CCC(n3ncc(COCc4ccccc4)n3)CC2)nc1` [Example 100, 2-[4-(4-benzyloxymethyl-[1,2,3]triazol-2-yl)-piperidin-1-yl]-5-trifluoromethyl-pyrimidine], the “% activity at 3 μM” value falls from 28.90% to 10.69%.

Compared with `O=C1CCCN1c1ccc(OCc2cnn(C3CCN(c4ncc(C(F)(F)F)cn4)CC3)n2)cc1` [Example 99, 1-(4-{2-[1-(5-Trifluoromethyl-pyrimidin-2-yl)-piperidin-4-yl]-2H-[1,2,3]triazol-4-ylmethoxy}-phenyl)-pyrrolidin-2-one], `CS(=O)(=O)c1ccc(OCc2cnn(C3CCN(c4ncc(F)cn4)CC3)n2)c(F)c1` [Example 107, 5-Fluoro-2-(4-(4-((2-fluoro-4-(methylsulfonyl)phenoxy)methyl)-2H-1,2,3-triazol-2-yl)piperidin-1-yl)pyrimidine] is lower in “% activity at 3 μM” value: 56.81% for the first, 36.83% for the second.

Compared with `CC(C)COC(=O)N1CCC(n2ncc(COc3ccc(-n4cnnn4)cc3F)n2)CC1` [Example 101, Isobutyl 4-(4-((2-fluoro-4-(1H-tetrazol-1-yl)phenoxy)methyl)-2H-1,2,3-triazol-2-yl)piperidine-1-carboxylate], `O=C(OCc1ccccc1)N1CCC(n2ncc(COc3ccc(-n4cnnn4)cc3F)n2)CC1` [Example 102, Benzyl 4-(4-((2-fluoro-4-(1H-tetrazol-1-yl)phenoxy)methyl)-2H-1,2,3-triazol-2-yl)piperidine-1-carboxylate] is lower in “% activity at 3 μM” value: 50.67% for the first, 38.98% for the second.

Compared with `CC(C)COC(=O)N1CCC(n2ncc(COc3ccc(S(C)(=O)=O)cc3F)n2)CC1` [Example 103, Isobutyl 4-(4-((2-fluoro-4-(methylsulfonyl)phenoxy)methyl)-2H-1,2,3-triazol-2-yl)piperidine-1-carboxylate], `CS(=O)(=O)c1ccc(OCc2cnn(C3CCN(C(=O)OCc4ccccc4)CC3)n2)c(F)c1` [Example 104, Benzyl 4-(4-((2-fluoro-4-(methylsulfonyl)phenoxy)methyl)-2H-1,2,3-triazol-2-yl)piperidine-1-carboxylate] is lower in “% activity at 3 μM” value: 51.30% for the first, 28.40% for the second.

Compared with `CCOC(=O)c1cnc(N2CCC(n3ncc(COc4ccc(S(C)(=O)=O)cc4F)n3)CC2)nc1` [Example 105, Ethyl 2-(4-(4-((2-fluoro-4-(methylsulfonyl)phenoxy)methyl)-2H-1,2,3-triazol-2-yl)piperidin-1-yl)pyrimidine-5-carboxylate], `Cc1cccnc1C(=O)N1CCC(n2ncc(COc3ccc(-n4cnnn4)cc3F)n2)CC1` [Example 111, (4-(4-((2-Fluoro-4-(1H-tetrazol-1-yl)phenoxy)methyl)-2H-1,2,3-triazol-2-yl)piperidin-1-yl)(3-methylpyridin-2-yl)methanone] is higher in “% activity at 3 μM” value: 10.65% for the first, 24.12% for the second.

Going from `O=C(c1ccccn1)N1CCC(n2ncc(COc3ccc(-n4cnnn4)cc3F)n2)CC1` [Example 108, (4-(4-((2-Fluoro-4-(1H-tetrazol-1-yl)phenoxy)methyl)-2H-1,2,3-triazol-2-yl)piperidin-1-yl)(pyridin-2-yl)methanone] to `O=C(c1cccc(O)n1)N1CCC(n2ncc(COc3ccc(-n4cnnn4)cc3F)n2)CC1` [Example 109, (4-(4-((2-Fluoro-4-(1H-tetrazol-1-yl)phenoxy)methyl)-2H-1,2,3-triazol-2-yl)piperidin-1-yl)(6-hydroxypyridin-2-yl)methanone], the “% activity at 3 μM” value falls from 41.78% to 7.45%.

First: O=C(c1ncccc1O)N1CCC(n2ncc(COc3ccc(-n4cnnn4)cc3F)n2)CC1 [Example 110, (4-(4-((2-Fluoro-4-(1H-tetrazol-1-yl)phenoxy)methyl)-2H-1,2,3-triazol-2-yl)piperidin-1-yl)(3-hydroxypyridin-2-yl)methanone]
Second: O=C(c1cccnc1)N1CCC(n2ncc(COc3ccc(-n4cnnn4)cc3F)n2)CC1 [Example 112, (4-(4-((2-Fluoro-4-(1H-tetrazol-1-yl)phenoxy)methyl)-2H-1,2,3-triazol-2-yl)piperidin-1-yl)(pyridin-3-yl)methanone]
The “% activity at 3 μM” value of the first is lower: 1.30% for the first, 42.30% for the second.
